Measurements as given in ChEMBL document CHEMBL1201862, “PubChem BioAssay data set” (2004).
Active and inactive are the calls of the source.

Experiments:
[1] = target: 5-hydroxytryptamine receptor 2A (Mus musculus, UniProt P35363); assay type: functional, cell-based;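 also: CHO-K1 cells with tagged receptor and beta-arrestin; agonist potency measured as compound-induced activation of the receptor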
Mu-type opioid receptor = Mu-type opioid receptor (Homo sapiens, UniProt P35372); assay type: functional, cell-based;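 also: U2OS cells with beta-arrestin recruitment to OPRM1 by beta-gal complementation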
[2] = off-target signal loss in HeLa-CEM21 co-culture – HeLa F-luc CTL cells, cherry-picked, counter-screen for HIV-1 Env fusion inhibitor project, dose response (AID 652040); assay type: functional, cell-based;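 also: potency for signal decrease marking cytotoxic or nonspecific inhibition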
[3] = HIV-1 AD8 envelope cell-cell fusion blockers – cherry-pick, dose response (AID 652062); assay type: functional, cell-based;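 also: luciferase signal from cell-cell fusion driven by HIV-1 clade B AD8 Env; potency is for inhibitors of fusion seen as a drop in luminescence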
[4] = blockers of HIV-1 ZM109 envelope-driven cell-cell fusion – HeLa effector, CEM target cells, luciferase, cherry-pick, dose response (AID 652058); assay type: functional, cell-based;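 also: luciferase signal from HIV-1 Env mediated cell-cell fusion of effector and target cells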
[5] = blockers of HIV-1 envelope-mediated cell-cell fusion – cherry-pick, dose response (AID 652057); assay type: functional, cell-based
[6] = blockade of melanocortin 4 receptor signaling – cell-based, plate reader, cherry pick, counter-screen for LGR2 antagonist project, dose response (AID 743444); assay type: functional;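 also: transfected HEK 293 cells stimulated with alpha-MSH peptide; potency of inhibitors of the alpha-MSH evoked signal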
[7] = blockers of bursicon-stimulated LGR2 cAMP reporter – cell-based, HEK293, CRE-luciferase reporter, cherry pick, set 2, dose response (AID 743343); assay type: functional;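 also: transfected cells were stimulated with diluted bursicon conditioned medium after compound addition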
[8] = toxicity toward HepG2 liver cells – cell-based, plate reader, cherry-pick, antagonist series, cytotoxicity control, dose response (AID 743416); assay type: functional
Fatty acid synthase [9] = target: T1, Fatty acid synthase (Homo sapiens, UniProt P49327); assay: inhibition of human FAS-TE enzyme activity – biochemical, endpoint fluorescence intensity, uHTS hits, dose response (AID 624327); assay type: functional;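 also: fluorescence from hydrolysis of an O-methyl fluorescein acyl ester substrate by the enzyme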
Fatty acid synthase [10] = target: T1, Fatty acid synthase; assay: inhibition of human FAS-TE enzyme activity – biochemical, kinetic fluorescence intensity, dose response (AID 624326); assay type: functional;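 also: rate of fluorescence rise from hydrolysis of a fluorogenic O-methyl fluorescein ester substrate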
[11] = target: Protein-tyrosine kinase 2-beta (Homo sapiens, UniProt Q14289);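 also: potency of inhibitors of PYK2 kinase phosphorylation of poly-GT substrate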
Estrogen receptor beta [12] = target: T2, Estrogen receptor beta (Homo sapiens, UniProt Q92731);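 also: recombinant ER-beta bound to coactivator SRC1 peptide in presence of estradiol agonist; inhibitors block coactivator peptide binding and lower the FRET signal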
Cytochrome P450 3A4 = Cytochrome P450 3A4 (Homo sapiens, UniProt P08684);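 also: CYP3A4 tested as one member of a cytochrome P450 panel screen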
Cytochrome P450 2C9 = Cytochrome P450 2C9 (Homo sapiens, UniProt P11712)
Cytochrome P450 2C19 = Cytochrome P450 2C19 (Homo sapiens, UniProt P33261); assay: Cytochrome panel assay with activity outcomes. Panel member name: p450-cyp2c19 Compounds with AC50 equal or less than 10 uM are considered active; assay type: functional
Estrogen receptor beta [13] = target: T2, Estrogen receptor beta; assay: blockers of SRC-3 recruitment to ERβ – biochemical, ELISA, streptavidin-HRP readout, orthogonal assay, confirmation (AID 1060)
[14] = viability loss in THP-1 monocytes – THP-1 cells, cytotoxicity control for Vif-APOBEC3G degradation inhibitor project, dose response (AID 1117359); assay type: functional; settings: THP-1
[15] = target: T3, Ubiquitin carboxyl-terminal hydrolase BAP1 (Homo sapiens, UniProt Q92560); assay: inhibition of BAP1 ubiquitin hydrolase activity – biochemical, dose response (AID 714); assay type: functional
T3 sequence (Q92560 whole entry): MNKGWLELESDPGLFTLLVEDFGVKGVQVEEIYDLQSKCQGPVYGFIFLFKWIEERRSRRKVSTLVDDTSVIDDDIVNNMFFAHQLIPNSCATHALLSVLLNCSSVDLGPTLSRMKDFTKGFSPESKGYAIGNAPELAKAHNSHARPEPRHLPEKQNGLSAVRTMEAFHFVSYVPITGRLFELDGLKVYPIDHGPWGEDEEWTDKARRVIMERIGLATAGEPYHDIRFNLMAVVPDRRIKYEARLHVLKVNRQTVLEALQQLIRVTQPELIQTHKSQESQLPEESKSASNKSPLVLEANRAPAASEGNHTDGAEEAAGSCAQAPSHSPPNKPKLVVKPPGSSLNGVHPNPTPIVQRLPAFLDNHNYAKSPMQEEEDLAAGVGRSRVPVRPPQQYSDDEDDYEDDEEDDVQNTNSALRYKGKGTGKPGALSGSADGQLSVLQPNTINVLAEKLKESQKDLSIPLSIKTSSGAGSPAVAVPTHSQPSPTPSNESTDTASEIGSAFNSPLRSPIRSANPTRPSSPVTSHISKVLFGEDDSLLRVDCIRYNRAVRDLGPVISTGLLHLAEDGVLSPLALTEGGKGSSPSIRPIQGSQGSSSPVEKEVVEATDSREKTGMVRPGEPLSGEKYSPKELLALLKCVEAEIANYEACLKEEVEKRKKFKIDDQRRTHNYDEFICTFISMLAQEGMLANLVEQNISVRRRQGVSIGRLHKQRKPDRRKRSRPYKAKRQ

Protein Tat = target: T4, Protein Tat (Human immunodeficiency virus type 1 group M subtype B (isolate HXB2)(HIV-1), UniProt P04608); assay type: functional;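 also: tat binding to TAR RNA read out by fluorescence polarization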
T4 sequence (P04608 whole entry): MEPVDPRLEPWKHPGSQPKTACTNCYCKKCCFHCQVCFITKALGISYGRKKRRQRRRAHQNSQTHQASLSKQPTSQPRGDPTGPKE

cells [16] = assay type: functional, cell-based
[17] = target: T5, Trace amine-associated receptor 1 (Homo sapiens, UniProt Q96RJ0); assay: Counterscreen for agonists of the human trace amine associated receptor 1 (hTAAR1): Fluorescence-based cell-based high throughput dose response assay to identify hTAAR1 agonist that also desensitize TAAR1 receptor response.; assay type: functional
T5 sequence (Q96RJ0 whole entry): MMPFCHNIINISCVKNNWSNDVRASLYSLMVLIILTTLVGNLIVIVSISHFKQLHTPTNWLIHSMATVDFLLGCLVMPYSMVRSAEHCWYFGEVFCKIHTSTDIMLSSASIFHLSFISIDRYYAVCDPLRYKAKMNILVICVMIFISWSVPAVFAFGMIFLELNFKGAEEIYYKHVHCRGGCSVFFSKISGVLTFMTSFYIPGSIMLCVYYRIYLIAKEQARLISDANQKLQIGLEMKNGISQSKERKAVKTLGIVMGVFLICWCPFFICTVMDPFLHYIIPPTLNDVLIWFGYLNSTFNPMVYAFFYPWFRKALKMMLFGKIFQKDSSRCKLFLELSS

[18] = target: T5, Trace amine-associated receptor 1; assay: Fluorescence-based cell-based high throughput dose response assay to identify agonists of the human trace amine associated receptor 1 (TAAR1).; assay type: functional
cells [19] = assay type: functional, cell-based; remark: listed apart in the source
[20] = target: T6, Calpain-2 catalytic subunit (Sus scrofa, UniProt P43367); assay: m-calpain protease blockers, concentration series – biochemical, fluorogenic peptide substrate, dose response (AID 1420); assay type: functional
T6 sequence (P43367 whole entry): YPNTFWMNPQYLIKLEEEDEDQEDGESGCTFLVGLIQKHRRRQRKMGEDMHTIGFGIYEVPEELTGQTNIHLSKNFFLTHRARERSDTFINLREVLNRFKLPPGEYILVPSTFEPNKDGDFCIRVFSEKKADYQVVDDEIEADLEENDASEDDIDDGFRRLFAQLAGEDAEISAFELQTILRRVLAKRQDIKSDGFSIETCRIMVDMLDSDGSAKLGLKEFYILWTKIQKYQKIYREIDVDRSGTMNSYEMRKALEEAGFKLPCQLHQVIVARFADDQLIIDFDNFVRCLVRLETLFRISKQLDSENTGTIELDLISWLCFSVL

Kallikrein-7 = Kallikrein-7 (Homo sapiens, UniProt P49862); assay: Fluorescence Intensity-based biochemical primary high throughput dose response assay to identify activators of kallikrein-7 (K7) zymogen.
[21] = Dd2 parasite growth inhibition in erythrocytes – SYBR Green, dry powder samples, set 9, dose response (AID 1159568); assay type: functional, cell-based

Chain of Mu-type opioid receptor (P35372 whole entry, the tested form may be a part): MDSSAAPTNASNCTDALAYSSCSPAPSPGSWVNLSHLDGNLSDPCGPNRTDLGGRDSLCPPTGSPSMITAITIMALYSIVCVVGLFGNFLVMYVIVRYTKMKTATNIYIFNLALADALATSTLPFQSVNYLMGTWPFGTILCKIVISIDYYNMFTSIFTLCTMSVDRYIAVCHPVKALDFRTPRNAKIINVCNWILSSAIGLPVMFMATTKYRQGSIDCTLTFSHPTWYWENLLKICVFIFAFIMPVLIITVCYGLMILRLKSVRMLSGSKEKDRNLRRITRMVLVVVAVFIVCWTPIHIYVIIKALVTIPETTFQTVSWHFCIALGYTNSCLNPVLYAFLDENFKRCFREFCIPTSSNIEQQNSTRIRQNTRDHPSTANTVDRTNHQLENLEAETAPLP
Chain of 5-hydroxytryptamine receptor 2A (P35363 whole entry): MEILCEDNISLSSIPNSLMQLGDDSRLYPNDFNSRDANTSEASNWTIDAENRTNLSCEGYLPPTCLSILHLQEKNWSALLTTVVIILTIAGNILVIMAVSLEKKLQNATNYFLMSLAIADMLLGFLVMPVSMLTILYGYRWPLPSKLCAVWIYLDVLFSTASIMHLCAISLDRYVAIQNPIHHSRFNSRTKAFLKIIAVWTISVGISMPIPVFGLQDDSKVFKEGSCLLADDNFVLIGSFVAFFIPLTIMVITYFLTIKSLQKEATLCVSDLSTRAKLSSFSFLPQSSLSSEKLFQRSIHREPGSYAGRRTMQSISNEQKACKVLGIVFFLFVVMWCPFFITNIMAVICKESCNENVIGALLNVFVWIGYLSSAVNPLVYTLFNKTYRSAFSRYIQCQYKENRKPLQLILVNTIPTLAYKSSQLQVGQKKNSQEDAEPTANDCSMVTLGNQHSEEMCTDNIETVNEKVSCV
Chain of Protein-tyrosine kinase 2-beta (Q14289 whole entry): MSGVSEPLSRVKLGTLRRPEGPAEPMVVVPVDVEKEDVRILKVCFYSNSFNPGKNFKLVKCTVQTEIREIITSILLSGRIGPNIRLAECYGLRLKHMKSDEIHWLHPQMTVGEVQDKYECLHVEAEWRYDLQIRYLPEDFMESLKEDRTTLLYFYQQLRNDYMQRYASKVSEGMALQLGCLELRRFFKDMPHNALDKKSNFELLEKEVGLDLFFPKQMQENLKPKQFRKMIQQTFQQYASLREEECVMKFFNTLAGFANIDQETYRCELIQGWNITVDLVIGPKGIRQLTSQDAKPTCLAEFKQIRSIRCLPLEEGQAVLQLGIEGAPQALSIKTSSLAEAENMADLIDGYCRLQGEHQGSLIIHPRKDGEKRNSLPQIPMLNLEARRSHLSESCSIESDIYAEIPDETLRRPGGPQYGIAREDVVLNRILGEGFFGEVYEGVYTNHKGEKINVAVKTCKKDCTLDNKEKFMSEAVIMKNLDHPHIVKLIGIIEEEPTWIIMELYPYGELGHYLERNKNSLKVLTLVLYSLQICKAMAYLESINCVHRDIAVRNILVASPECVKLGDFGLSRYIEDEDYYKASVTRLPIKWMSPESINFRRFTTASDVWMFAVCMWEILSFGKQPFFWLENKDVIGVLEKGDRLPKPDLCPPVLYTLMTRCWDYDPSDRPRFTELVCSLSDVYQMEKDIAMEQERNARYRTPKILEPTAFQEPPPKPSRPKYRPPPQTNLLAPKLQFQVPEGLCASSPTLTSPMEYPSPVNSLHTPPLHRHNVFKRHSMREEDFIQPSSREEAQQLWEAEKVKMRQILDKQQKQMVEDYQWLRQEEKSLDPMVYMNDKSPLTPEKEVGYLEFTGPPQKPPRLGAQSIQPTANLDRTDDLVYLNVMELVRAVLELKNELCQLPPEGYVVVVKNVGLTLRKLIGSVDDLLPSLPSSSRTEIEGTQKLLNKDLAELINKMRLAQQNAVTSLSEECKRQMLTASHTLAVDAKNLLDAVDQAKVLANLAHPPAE
T2 sequence (Q92731 whole entry): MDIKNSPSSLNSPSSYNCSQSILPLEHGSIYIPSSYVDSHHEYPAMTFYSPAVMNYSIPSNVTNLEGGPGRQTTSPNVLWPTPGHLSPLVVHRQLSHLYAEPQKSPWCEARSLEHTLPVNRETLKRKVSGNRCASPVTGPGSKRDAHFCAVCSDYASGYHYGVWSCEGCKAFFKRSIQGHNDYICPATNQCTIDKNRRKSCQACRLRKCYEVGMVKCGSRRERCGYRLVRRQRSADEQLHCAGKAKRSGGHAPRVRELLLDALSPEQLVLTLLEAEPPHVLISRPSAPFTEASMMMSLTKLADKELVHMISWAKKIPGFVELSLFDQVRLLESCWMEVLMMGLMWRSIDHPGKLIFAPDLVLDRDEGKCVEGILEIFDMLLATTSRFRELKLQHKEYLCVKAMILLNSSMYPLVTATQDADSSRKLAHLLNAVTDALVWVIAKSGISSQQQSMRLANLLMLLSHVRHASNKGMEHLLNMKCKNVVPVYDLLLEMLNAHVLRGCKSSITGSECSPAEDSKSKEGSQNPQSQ
T1 sequence (P49327 whole entry): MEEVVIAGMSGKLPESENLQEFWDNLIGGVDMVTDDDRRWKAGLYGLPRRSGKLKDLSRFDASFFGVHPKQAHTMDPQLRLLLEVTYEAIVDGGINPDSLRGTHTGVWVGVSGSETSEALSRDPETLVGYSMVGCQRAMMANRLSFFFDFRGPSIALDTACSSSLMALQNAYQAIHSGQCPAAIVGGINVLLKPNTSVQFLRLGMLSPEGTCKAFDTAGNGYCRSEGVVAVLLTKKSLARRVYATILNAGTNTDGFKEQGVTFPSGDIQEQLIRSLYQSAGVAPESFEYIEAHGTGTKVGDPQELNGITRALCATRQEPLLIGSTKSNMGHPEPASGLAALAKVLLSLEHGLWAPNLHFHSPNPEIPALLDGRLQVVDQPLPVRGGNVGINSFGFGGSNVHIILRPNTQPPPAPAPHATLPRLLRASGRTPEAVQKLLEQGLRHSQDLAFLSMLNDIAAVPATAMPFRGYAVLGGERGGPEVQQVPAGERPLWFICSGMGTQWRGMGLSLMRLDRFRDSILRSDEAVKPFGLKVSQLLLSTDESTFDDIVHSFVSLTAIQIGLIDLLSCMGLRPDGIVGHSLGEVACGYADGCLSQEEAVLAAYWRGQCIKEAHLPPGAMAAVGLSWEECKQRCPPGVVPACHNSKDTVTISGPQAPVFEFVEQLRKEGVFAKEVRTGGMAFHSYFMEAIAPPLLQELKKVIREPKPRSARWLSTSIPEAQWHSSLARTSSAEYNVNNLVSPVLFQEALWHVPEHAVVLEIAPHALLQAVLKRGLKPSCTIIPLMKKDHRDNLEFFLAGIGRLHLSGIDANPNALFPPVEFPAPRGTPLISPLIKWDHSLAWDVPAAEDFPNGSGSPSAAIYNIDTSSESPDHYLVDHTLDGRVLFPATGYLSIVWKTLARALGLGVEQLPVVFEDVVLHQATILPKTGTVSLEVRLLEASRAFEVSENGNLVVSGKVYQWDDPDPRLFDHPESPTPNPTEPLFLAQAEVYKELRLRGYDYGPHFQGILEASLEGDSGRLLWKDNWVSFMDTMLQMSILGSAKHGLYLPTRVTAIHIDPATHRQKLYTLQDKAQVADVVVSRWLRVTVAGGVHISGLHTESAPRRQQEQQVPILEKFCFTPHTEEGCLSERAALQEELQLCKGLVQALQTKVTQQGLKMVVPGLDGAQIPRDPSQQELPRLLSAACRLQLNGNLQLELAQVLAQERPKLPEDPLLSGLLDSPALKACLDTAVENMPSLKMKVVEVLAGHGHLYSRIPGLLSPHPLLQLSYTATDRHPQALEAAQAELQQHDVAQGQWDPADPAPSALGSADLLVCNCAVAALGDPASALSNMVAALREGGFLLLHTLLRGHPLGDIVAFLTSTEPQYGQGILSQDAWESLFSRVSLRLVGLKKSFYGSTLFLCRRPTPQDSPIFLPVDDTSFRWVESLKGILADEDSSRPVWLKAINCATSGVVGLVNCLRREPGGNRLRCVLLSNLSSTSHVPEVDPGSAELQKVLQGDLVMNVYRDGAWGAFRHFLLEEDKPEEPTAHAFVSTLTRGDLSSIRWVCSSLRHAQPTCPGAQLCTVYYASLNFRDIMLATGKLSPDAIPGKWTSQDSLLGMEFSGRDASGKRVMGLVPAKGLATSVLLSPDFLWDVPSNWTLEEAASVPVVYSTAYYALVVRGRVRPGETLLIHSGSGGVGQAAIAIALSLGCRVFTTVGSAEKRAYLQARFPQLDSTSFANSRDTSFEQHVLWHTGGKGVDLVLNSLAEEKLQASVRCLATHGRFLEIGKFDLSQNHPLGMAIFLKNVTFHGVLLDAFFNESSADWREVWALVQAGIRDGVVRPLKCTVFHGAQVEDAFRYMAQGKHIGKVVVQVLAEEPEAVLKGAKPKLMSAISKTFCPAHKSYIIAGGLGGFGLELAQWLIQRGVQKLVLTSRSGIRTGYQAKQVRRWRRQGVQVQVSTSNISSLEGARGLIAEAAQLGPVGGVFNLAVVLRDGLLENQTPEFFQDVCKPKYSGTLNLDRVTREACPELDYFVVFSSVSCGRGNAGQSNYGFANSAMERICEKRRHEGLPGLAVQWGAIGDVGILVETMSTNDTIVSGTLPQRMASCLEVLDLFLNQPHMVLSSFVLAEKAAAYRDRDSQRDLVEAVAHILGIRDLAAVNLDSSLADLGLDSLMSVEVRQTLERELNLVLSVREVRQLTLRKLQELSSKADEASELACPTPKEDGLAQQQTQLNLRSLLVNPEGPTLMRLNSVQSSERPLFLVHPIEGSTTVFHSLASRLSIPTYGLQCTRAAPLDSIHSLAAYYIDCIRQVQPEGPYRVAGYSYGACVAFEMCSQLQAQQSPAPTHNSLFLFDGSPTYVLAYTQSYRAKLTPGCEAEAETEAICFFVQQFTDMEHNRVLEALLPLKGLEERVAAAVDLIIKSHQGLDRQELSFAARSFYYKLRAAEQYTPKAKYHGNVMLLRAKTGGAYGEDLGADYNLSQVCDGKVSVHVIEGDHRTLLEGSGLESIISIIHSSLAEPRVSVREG

In the case of `Cc1ccc(CN2CCN(c3ccccn3)CC2)s1`, the EC50 [1] is reported as 0.0593 µM (active) and the EC50 (Mu-type opioid receptor) is reported as 92.5 µM (inactive).
With `CC(=O)c1ccc(OCC(O)CN2CCN(c3ccccn3)CC2)cc1` (stereo unspecified) the EC50 [1] was 0.865 µM (active) and the EC50 (Mu-type opioid receptor) was 92.4 µM (inactive).
In the case of `CCOc1ccc(N(CC(=O)NCCSCc2ccc(Cl)cc2)S(C)(=O)=O)cc1`, the AC50 [2] is reported as 9.39 µM (active), the AC50 [3] is reported as 5.88 µM (active) and the AC50 [4] is reported as 9.3 µM (active). For the same compound, the AC50 [5] was 5.62 µM (active).
With `O=Cc1cn(Cc2cccc([N+](=O)[O-])c2)c2ccccc12` the AC50 [6] was 0.801 µM (active), the AC50 [7] was 1.28 µM (active) and the AC50 [8] was 0.625 µM (active). For the same compound, the IC50 (Fatty acid synthase [9]) was 12 µM (active) and the IC50 (Fatty acid synthase [10]) was 10.9 µM (active).
With `COc1cccc(CN2CC(=O)C(c3nc(-c4ccc(Cl)cc4)cs3)=C2N)c1` the IC50 [11] was 5.59 µM (active).
In the case of `Cc1ccc(C)c(C(=O)C2=C(O)C(=O)N(CCN3CCOCC3)C2c2ccco2)c1` (stereo unspecified), the IC50 (Estrogen receptor beta [12]) is reported as 18.4 µM (active), the AC50 (Cytochrome P450 3A4) is reported as 39.8 µM (inconclusive) and the AC50 (Cytochrome P450 2C9) is reported as 0.1 µM (inconclusive). For the same compound, the AC50 (Cytochrome P450 2C19) was “inconclusive” and the IC50 (Estrogen receptor beta [13]) was 32.1 µM (not active).
With `CN(C)c1ccc(NC(=O)CSc2nc3ccccc3c(=O)n2C2CCCCC2)cc1` the CC50 [14] was > 40 µM (active), the IC50 [15] was 30.2 µM (not active) and the IC50 (Protein Tat) was 47.4 µM (inconclusive).
In the case of `O=C(Oc1ccccc1Cl)c1ccccc1P(=O)(O)O`, the IC50 [11] is reported as 4.49 µM (active).
For `O=C(O)/C=C/C(=O)NCCc1ccc(Cl)cc1`, the EC50 (cells [16]) was > 29.9 µM (inactive), the IC50 [17] was > 29.9 µM (inactive) and the EC50 [18] was 51.7 µM (inactive). The IC50 (cells [19]) was > 29.9 µM (inactive).
With `Cc1ccn2c(=O)c(C(=O)NCCC3=CCCCC3)c(O)nc2c1` the EC50 (cells [16]) was > 29.9 µM (inactive), the IC50 [17] was > 29.9 µM (inactive) and the EC50 [18] was 3.44 µM (active). The IC50 (cells [19]) was > 29.9 µM (inactive).
For `O=C(NC1CCCCC1)C(=S)NCCc1ccccc1`, the EC50 (cells [16]) was > 29.9 µM (inactive), the IC50 [17] was 5.49 µM (active) and the EC50 [18] was 2.41 µM (active). The IC50 (cells [19]) was > 29.9 µM (inactive).
In the case of `OC(COCc1cccs1)CN1CCN(c2ccccn2)CC1` (stereo unspecified), the EC50 [1] is reported as 0.637 µM (active) and the EC50 (Mu-type opioid receptor) is reported as 92.5 µM (inactive).
In the case of `CCOc1ccc(NC2=NC(=O)S/C2=C\c2ccc(Cl)cc2)cc1`, the IC50 [11] is reported as 2.79 µM (active) and the IC50 [20] is reported as > 50 µM (not active).
In the case of `O=C(NCc1ccco1)c1cc2n(n1)C(C(F)(F)F)CC(c1ccc(Br)cc1)N2` (stereo unspecified), the IC50 [15] is reported as > 50 µM (not active).
In the case of `Cc1cccc2cc(C(c3nnnn3C(C)(C)C)N3CCN(C(=O)c4ccco4)CC3)c(=O)[nH]c12` (stereo unspecified), the IC50 [15] is reported as 17.3 µM (active).
With `CC1(C(=O)NCc2cccc3ccccc23)CCN1Cc1ccc(-c2ccccc2)o1` (stereo unspecified) the AC50 [2] was 4.07 µM (active), the AC50 [3] was 2.57 µM (active) and the AC50 [4] was 4.71 µM (active). For the same compound, the AC50 [5] was 2.31 µM (active).
With `C[C@H](O)[C@@H]1C(=O)N2CCc3c([nH]c4ccccc34)[C@@H]2C[C@@H]1N(C)S(=O)(=O)c1ccccc1` the EC50 (Kallikrein-7) was 7.44 µM (active).
For `Cc1ccc(/C=N/c2ccccc2C(N)=O)cc1`, the EC50 (Kallikrein-7) was > 69.5 µM (inactive).
In the case of `CCC(/C=C(\O)c1ccncc1)=N\c1ccc(O)cc1`, the CC50 [14] is reported as > 40 µM (active) and the IC50 (Protein Tat) is reported as 18.3 µM (inconclusive).
In the case of `COc1ccc(NC(=O)N(C)C[C@H]2Oc3c(NC(=O)CCCCCC(=O)Nc4ccccc4N)cccc3C(=O)N([C@H](C)CO)C[C@H]2C)cc1`, the AC50 [21] is reported as 0.304 µM (active).
In the case of `COc1ccccc1C#Cc1ccc([C@@H]2[C@@H](CO)N3CCCCN(C(=O)C4CCC4)C[C@H]23)cc1`, the AC50 [21] is reported as 8.41 µM (active).
